Test results reported in BindingDB's records for doi:10.1016/j.bmc.2011.12.062 (The Ohio State University College of Medicine, 2012).

Assay: Displacement of thioflavin T from insulin amyloid fibrils by thioflavin-T fluorescent dye assay

SMILES	IC50 [nM]
CN(C)c1ccc(/C=C/c2sc3ccccc3[n+]2CCCCCOc2ccccc2)cc1	80
CCCCCCC[n+]1c(/C=C/c2ccc(N(CC)CC)cc2)sc2ccccc21	120
CCCCCCC[n+]1c(/C=C/c2ccc(N(CCCC)CCCC)cc2)sc2ccccc21	90
CC[n+]1c(/C=C/c2ccc(N(C)C)cc2)sc2ccccc21	6
CN(C)c1ccc(/C=C/c2sc3ccc(Cl)cc3[n+]2C)cc1	5.2
Cc1ccc2sc(/C=C/c3ccc(N(C)C)cc3)[n+](C)c2c1	7.5
Cc1ccc2c(c1)sc(/C=C/c1ccc(N(C)C)cc1)[n+]2C	6
CN(C)c1ccc(/C=C/c2sc3cc([N+](=O)[O-])ccc3[n+]2C)cc1	12
CN(C)c1ccc(/N=N/c2nc3ccccc3s2)cc1	1200
COc1ccc2nc(/N=N/c3ccc(N(C)C)cc3)sc2c1	700
CN(C)c1ccc(/N=N/c2nc3ccc(Cl)cc3s2)cc1	1300
COc1ccc2c(c1)sc(/N=N/c1ccc(N(C)C)cc1)[n+]2C	10
CN(C)c1ccc(/N=N/c2sc3ccccc3[n+]2C)cc1	60
CN(C)c1ccc(/C=C/c2sc3ccccc3[n+]2Cc2ccccc2)cc1	12
CCCC[n+]1c(/C=C/c2ccc(N(C)C)cc2)sc2ccccc21	27
CCCCCCC[n+]1c(/C=C/c2ccc(N(C)C)cc2)sc2ccccc21	83
CN(C)c1ccc(/C=C/c2sc3ccc(F)cc3[n+]2Cc2ccccc2)cc1	32
Cc1ccc2c(c1)sc(/C=C/c1ccc(N(C)C)cc1)[n+]2Cc1ccccc1	50

SMILES	IC50 [nM]
CCCCCCC[n+]1c(/C=C/c2ccc(N(C)C)cc2)sc2cc(OC)ccc21	40
CN(C)c1ccc(/C=C/c2sc3ccccc3[n+]2Cc2ccc(F)cc2)cc1	42
CN(C)c1ccc(/C=C/c2sc3ccccc3[n+]2Cc2ccc(-c3ccccc3)cc2)cc1	34
CN(C)c1ccc(/C=C/c2sc3ccccc3[n+]2Cc2ccccc2-c2ccccc2)cc1	80
CN(C)c1ccc(/C=C/c2sc3ccccc3[n+]2Cc2cccc(Oc3ccccc3)c2)cc1	180
CN(C)c1ccc(/C=C/c2sc3ccccc3[n+]2C/C=C/c2ccccc2)cc1	80
CN(C)c1ccc(/C=C/c2sc3ccccc3[n+]2CCCC(c2ccccc2)c2ccccc2)cc1	210
CN(C)c1ccc(/C=C/c2sc3ccccc3[n+]2CCCOCc2ccccc2)cc1	52
CCCCCCC[n+]1c(/C=C/c2ccc(-n3cccc3)cc2)sc2ccccc21	42
CN(C)c1ccc(/C=C/c2sc3c(Cc4ccccc4)c(Cc4ccccc4)ccc3[n+]2C)cc1	41
CN(C)c1ccc(/C=C/c2sc3ccccc3[n+]2Cc2ccc3ccccc3c2)cc1	13
CCCCCCC[n+]1c(/C=C/c2ccc(N(C)C)c3ccccc23)sc2ccccc21	40
COc1ccc2c(c1)sc(/C=C/c1ccc(N(C)C)c3ccccc13)[n+]2C	26
Nc1ccc(/N=N/c2nc3ccccc3s2)c2ccccc12	130
COc1ccc2nc(/N=N/c3ccc(N(C)C)c4ccccc34)sc2c1	340
CN(C)c1ccc(/C=C/c2sc3ccc(Cc4ccccc4)c(Cc4ccccc4)c3[n+]2C)cc1	41
CN(C)c1ccc(/C=C/c2nc3cc(Cl)ccc3s2)cc1	> 100000
